Among the targets are CRAF^WT (Homo sapiens, UniProt P04049); CRAF^SSDD (Homo sapiens, UniProt P04049, Y340D/Y341D); BRAF^KD (Homo sapiens, UniProt P15056); BRAF^V600E (Homo sapiens, UniProt P15056, V600E).
Experiment in all cases: ATP and MEK titrations by TR-FRET (Michaelis constants, substrate inhibition)
A further test addresses T1, BRAF^WT (Homo sapiens, UniProt P15056).
T1 construct: His6 (N); made in house; host or cells: SF9 insect cells (baculovirus)
In kind it is biochemical. The settings on record: apparent Ki of substrate inhibition by ATP.

For the next test, the target named is T2, ARAF^SSDD (Homo sapiens, UniProt P10398, G300S/Y301D/Y302D).
T2 sequence (P10398 274-606 G300S/Y301D/Y302D): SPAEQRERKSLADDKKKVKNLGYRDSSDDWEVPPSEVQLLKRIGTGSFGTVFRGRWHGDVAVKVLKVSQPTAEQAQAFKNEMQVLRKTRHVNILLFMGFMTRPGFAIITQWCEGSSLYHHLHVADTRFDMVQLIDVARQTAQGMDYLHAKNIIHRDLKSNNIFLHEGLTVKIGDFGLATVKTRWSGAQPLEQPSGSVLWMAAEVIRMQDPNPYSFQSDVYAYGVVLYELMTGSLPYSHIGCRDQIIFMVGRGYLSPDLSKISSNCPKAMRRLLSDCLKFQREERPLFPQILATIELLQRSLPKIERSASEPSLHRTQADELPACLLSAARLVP

Each structure is given as a SMILES string. A value given as a limit tells only on which side of the number the result lay.

T1 sequence (P15056 419-766): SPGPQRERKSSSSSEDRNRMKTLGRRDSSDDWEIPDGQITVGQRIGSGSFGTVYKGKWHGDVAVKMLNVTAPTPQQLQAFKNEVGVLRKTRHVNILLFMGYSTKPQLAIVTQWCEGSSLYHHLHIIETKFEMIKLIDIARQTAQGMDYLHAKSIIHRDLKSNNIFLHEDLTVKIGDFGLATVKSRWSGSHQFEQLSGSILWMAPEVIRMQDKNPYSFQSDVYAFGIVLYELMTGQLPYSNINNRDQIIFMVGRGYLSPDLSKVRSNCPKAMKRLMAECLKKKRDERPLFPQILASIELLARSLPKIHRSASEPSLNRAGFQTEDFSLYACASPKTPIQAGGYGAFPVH

For `Nc1ncnc2c1ncn2[C@@H]1O[C@H](COP(=O)(O)OP(=O)(O)OP(=O)(O)O)[C@@H](O)[C@H]1O` [ATP], the Ki is 4.84 ± 2.85 mM on BRAF^WT; greater than 15 mM on ARAF^SSDD (read-out: Ki-ATP, ARAF^SSDD, apparent Ki of substrate inhibition by ATP); greater than 15 mM at CRAF^WT (read-out: Ki-ATP, CRAF^WT, apparent Ki of substrate inhibition by ATP); greater than 15 mM on CRAF^SSDD (read-out: Ki-ATP, CRAF^SSDD, apparent Ki of substrate inhibition by ATP); 3.53 ± 0.58 mM at BRAF^KD (read-out: Ki-ATP, BRAF^KD, apparent Ki of substrate inhibition by ATP); 6.34 ± 4.07 mM on BRAF^V600E (read-out: Ki-ATP, BRAF^V600E, apparent Ki of substrate inhibition by ATP). Further, the Km at ARAF^SSDD (read-out: Km-ATP, ARAF^SSDD, ATP titration, substrate inhibition fit) worked out at 1.58 ± 0.19 µM; on CRAF^WT (read-out: Km-ATP, CRAF^WT, ATP titration, substrate inhibition fit) it was 1.56 ± 1.5 µM; at CRAF^SSDD (read-out: Km-ATP, CRAF^SSDD, ATP titration, substrate inhibition fit), 0.73 ± 0.38 µM; at BRAF^V600E (read-out: Km-ATP, BRAF^V600E, ATP titration, substrate inhibition fit), 12.6 ± 7.8 µM. The “Km-ATP, BRAF^KD” value at BRAF^KD (ATP titration, substrate inhibition fit) was found to be 0.00018 ± 4e-05 mM.

For the origin of these results see PMC12630025, “Characterization and inhibitor sensitivity of ARAF, BRAF, and CRAF kinases [drawing 1]” (The Journal of Biological Chemistry, 2025).
